The test system of this assay is pathogenic bacteria. Nature of the assay: MIC by microdilution broth method (NCCLS M7-A4), in vitro antibacterial activity. The format is cell-based. The method, then:
Minimal inhibitory concentration (MIC) has been an indicator of in vitro antibacterial activity widely used in the art. The in vitro antimicrobial activity of the compounds was determined by the microdilution broth method following the test method from the National Committee for Clinical Laboratory Standards (NCCLS). This method is described in the NCCLS Document M7-A4, Vol. 17, No. 2, “Methods for Dilution Antimicrobial Susceptibility Test for Bacteria that Grow Aerobically—Fourth Edition”, which is incorporated herein by reference.
In this method two-fold serial dilutions of drug in cation adjusted Mueller-Hinton broth are added to wells in microdilution trays. The test organisms are prepared by adjusting the turbidity of actively growing broth cultures so that the final concentration of test organism after it is added to the wells is approximately 5×10^4 CFU/well.
Following inoculation of the microdilution trays, the trays are incubated at 35° C. for 16-20 hours and then read. […] The amount of growth in the wells containing the test compound is compared with the amount of growth in the growth-control wells (no test compound) used in each tray. As set forth in Table 5, compounds of the present invention were tested against a variety of pathogenic bacteria resulting in a range of activities depending on the organism tested.
On the technique in general: In broth dilution the organism is exposed to a series of concentrations in liquid medium.

The mark [1] stands for this setting: Staphylococcus aureus, Organism A: Staphylococcus aureus OC4172, read-out: MIC.
[2] abbreviates: Streptococcus pneumoniae, ATCC49619, Organism E: Streptococcus pneumoniae ATCC 49619, read-out: MIC.
Setting [3] is: Streptococcus pneumoniae, Organism B: fluoroquinolone-resistant clinical isolate of Streptococcus pneumoniae (QRDR amino acid substitutions).
Where [4] appears, read: Streptococcus pneumoniae, Organism C: fluoroquinolone-resistant clinical isolate of Streptococcus pneumoniae (QRDR amino acid substitutions).
Where [5] appears, read: Streptococcus pneumoniae, Organism D: fluoroquinolone-resistant clinical isolate of Streptococcus pneumoniae (QRDR amino acid substitutions).

In brackets after ≈: the same amount, converted by molar mass. Like-named read-outs stand apart in the source and are kept apart here.

In the case of `CC1(C)CN(c2nc3c(cc2F)c(=O)c(C(=O)O)cn3C2CC2)CCC1=C(F)CN` [Compound 175, 7-[4-(2-Amino-1-fluoro-ethylidene)-3,3-dimethyl-piperidin-1-yl]-1-cyclopropyl-6-fluoro-4-oxo-1,4-dihydro-[1,8]naphthyridine-3-carboxylic acid], the MIC (as a rule, the least concentration at which growth counts as inhibited) amounted to 0.5 µg/mL (≈ 1.19 µM) under setting [1]; 0.25 µg/mL (≈ 0.597 µM) under setting [2]; 2 µg/mL (≈ 4.78 µM) under setting [3]; 2 µg/mL (≈ 4.78 µM) under setting [4]; 1 µg/mL (≈ 2.39 µM) under setting [5].
As for `CC1(C)CN(c2nc3c(cc2F)c(=O)c(C(=O)O)cn3C2CC2)CCC1=C(Br)CN` [Compound 176, 7-[4-(2-Amino-1-bromo-ethylidene)-3,3-dimethyl-piperidin-1-yl]-1-cyclopropyl-6-fluoro-4-oxo-1,4-dihydro-[1,8]naphthyridine-3-carboxylic acid], the MIC came to 0.25 µg/mL (≈ 0.522 µM) under setting [1]; 0.12 µg/mL (≈ 0.25 µM) under setting [2]; 0.5 µg/mL (≈ 1.04 µM) under setting [3]; 1 µg/mL (≈ 2.09 µM) under setting [4]; 1 µg/mL (≈ 2.09 µM) under setting [5].
Take `CN(C)CCNCC(Cl)=C1CCN(c2nc3c(cc2F)c(=O)c(C(=O)O)cn3C2CC2)CC1` [Compound 177, 7-{4-[1-Chloro-2-(2-dimethylamino-ethylamino)-ethylidene]-piperidin-1-yl}-1-cyclopropyl-6-fluoro-4-oxo-1,4-dihydro-[1,8]naphthyridine-3-carboxylic acid]: the MIC is 1 µg/mL (≈ 2.09 µM) under setting [1]; 4 µg/mL (≈ 8.37 µM) under setting [2]; 8 µg/mL (≈ 16.7 µM) under setting [3]; greater than 16 µg/mL under setting [4]; greater than 16 µg/mL under setting [5].
Regarding `C=CC(Cl)=C1CCN(c2nc3c(cc2F)c(=O)c(C(=O)O)cn3C2CC2)CC1` [Compound 178, 7-[4-(1-Chloro-allylidene)-piperidin-1-yl]-1-cyclopropyl-6-fluoro-4-oxo-1,4-dihydro-[1,8]naphthyridine-3-carboxylic acid], the MIC under setting [1] worked out at 0.5 µg/mL (≈ 1.24 µM); the MIC under setting [2] was 4 µg/mL (≈ 9.9 µM); it took 1 µg/mL (≈ 2.48 µM) to inhibit growth under setting [3] (MIC); the MIC under setting [4] came out at 8 µg/mL (≈ 19.8 µM); the MIC under setting [5] was determined as 4 µg/mL (≈ 9.9 µM).
As for `CCOC(=O)OCC(F)=C1CCN(c2nc3c(cc2F)c(=O)c(C(=O)O)cn3C2CC2)CC1` [Compound 179, 1-Cyclopropyl-7-[4-(2-ethoxycarbonyloxy-1-fluoro-ethylidene)-piperidin-1-yl]-6-fluoro-4-oxo-1,4-dihydro-[1,8]naphthyridine-3-carboxylic acid], the MIC by setting is: under setting [1], 0.5 µg/mL (≈ 1.08 µM); under setting [2], 2 µg/mL (≈ 4.32 µM); under setting [3], greater than 16 µg/mL; under setting [4], greater than 16 µg/mL; under setting [5], greater than 16 µg/mL.
In the case of `CN(C)CC(Cl)=C1CCN(c2nc3c(cc2F)c(=O)c(C(=O)O)cn3C2CC2)CC1` [Compound 180, 7-[4-(1-Chloro-2-dimethylamino-ethylidene)-piperidin-1-yl]-1-cyclopropyl-6-fluoro-4-oxo-1,4-dihydro-[1,8]naphthyridine-3-carboxylic acid], the MIC under setting [1] is 0.5 µg/mL (≈ 1.15 µM), the MIC under setting [2] is 0.5 µg/mL (≈ 1.15 µM), the MIC under setting [4] came to 8 µg/mL (≈ 18.4 µM) and the MIC under setting [5] was 2 µg/mL (≈ 4.6 µM).
Consider `O=C(O)c1cn(C2CC2)c2nc(N3CCC(=C(Cl)CN4CCCCC4)CC3)c(F)cc2c1=O` [Compound 181, 7-[4-(1-Chloro-2-piperidin-1-yl-ethylidene)-piperidin-1-yl]-1-cyclopropyl-6-fluoro-4-oxo-1,4-dihydro-[1,8]naphthyridine-3-carboxylic acid], for which the minimum inhibitory concentration (MIC) under setting [1] stood at 1 µg/mL (≈ 2.11 µM), the MIC under setting [2] came out at 2 µg/mL (≈ 4.21 µM), the minimum inhibitory concentration (MIC) under setting [4] is greater than 16 µg/mL and inhibition of growth under setting [5] (MIC) required 8 µg/mL (≈ 16.8 µM).
On to `CN(C)CC(F)=C1CCN(c2nc3c(cc2F)c(=O)c(C(=O)O)cn3C2CC2)CC1` [Compound 182, 1-Cyclopropyl-7-[4-(2-dimethylamino-1-fluoro-ethylidene)-piperidin-1-yl]-6-fluoro-4-oxo-1,4-dihydro-[1,8]naphthyridine-3-carboxylic acid], for which the MIC runs as follows: under setting [1], 0.06 µg/mL (≈ 0.143 µM); under setting [2], 0.25 µg/mL (≈ 0.597 µM); under setting [4], 1 µg/mL (≈ 2.39 µM); under setting [5], 2 µg/mL (≈ 4.78 µM).
As to `NCC(F)=C1CN(c2nc3c(cc2F)c(=O)c(C(=O)O)cn3-c2ccc(F)cc2F)C1` [Compound 183, 7-[3-(2-Amino-1-fluoro-ethylidene)-azetidin-1-yl]-1-(2,4-difluoro-phenyl)-6-fluoro-4-oxo-1,4-dihydro-[1,8]naphthyridine-3-carboxylic acid], the MIC runs as follows: under setting [1], 0.12 µg/mL (≈ 0.276 µM); under setting [2], 0.25 µg/mL (≈ 0.576 µM); under setting [4], 2 µg/mL (≈ 4.6 µM); under setting [5], 2 µg/mL (≈ 4.6 µM).
Regarding `O=C(O)c1cn(-c2ccc(F)cc2F)c2nc(N3CCC(=CCO)CC3)c(F)cc2c1=O` [Compound 185, 1-(2,4-Difluoro-phenyl)-6-fluoro-7-[4-(2-hydroxy-ethylidene)-piperidin-1-yl]-4-oxo-1,4-dihydro-[1,8]naphthyridine-3-carboxylic acid], the MIC under setting [1] is 0.12 µg/mL (≈ 0.269 µM), the minimum inhibitory concentration (MIC) under setting [2] worked out at 1 µg/mL (≈ 2.25 µM), the MIC under setting [3] was 16 µg/mL (≈ 35.9 µM) and the MIC under setting [4] amounted to 16 µg/mL (≈ 35.9 µM).
For the compound `COc1c(N2CC(=C(Cl)CN)C2)c(F)cc2c(=O)c(C(=O)O)cn(C3CC3)c12` [Compound 189, 7-[3-(2-Amino-1-chloro-ethylidene)-azetidin-1-yl]-1-cyclopropyl-6-fluoro-8-methoxy-4-oxo-1,4-dihydro-quinoline-3-carboxylic acid], the MIC by setting is: under setting [1], less than 0.12 µg/mL; under setting [2], 2 µg/mL (≈ 4.9 µM); under setting [3], 4 µg/mL (≈ 9.81 µM); under setting [4], 2 µg/mL (≈ 4.9 µM); under setting [5], 4 µg/mL (≈ 9.81 µM).
In the case of `COc1c(N2CCC(=C(Cl)CN(C)C)CC2)c(F)cc2c(=O)c(C(=O)O)cn(C3CC3)c12` [Compound 191, 7-[4-(1-Chloro-2-dimethylamino-ethylidene)-piperidin-1-yl]-1-cyclopropyl-6-fluoro-8-methoxy-4-oxo-1,4-dihydro-quinoline-3-carboxylic acid], the MIC runs as follows: under setting [1], 0.25 µg/mL (≈ 0.539 µM); under setting [2], 0.5 µg/mL (≈ 1.08 µM); under setting [3], 8 µg/mL (≈ 17.2 µM); under setting [4], 8 µg/mL (≈ 17.2 µM); under setting [5], 2 µg/mL (≈ 4.31 µM).
Regarding `COc1c(N2CCC(=C(Cl)CN3CCCC3)CC2)c(F)cc2c(=O)c(C(=O)O)cn(C3CC3)c12` [Compound 193, 7-[4-(1-Chloro-2-pyrrolidin-1-yl-ethylidene)-piperidin-1-yl]-1-cyclopropyl-6-fluoro-8-methoxy-4-oxo-1,4-dihydro-quinoline-3-carboxylic acid], the MIC was found to be 0.12 µg/mL (≈ 0.245 µM) under setting [1]; 0.5 µg/mL (≈ 1.02 µM) under setting [2]; 8 µg/mL (≈ 16.3 µM) under setting [3]; 8 µg/mL (≈ 16.3 µM) under setting [4]; 2 µg/mL (≈ 4.08 µM) under setting [5].
Take `COc1c(N2CCC(=C(Cl)CN3CCCCC3)CC2)c(F)cc2c(=O)c(C(=O)O)cn(C3CC3)c12` [Compound 194, 7-[4-(1-Chloro-2-piperidin-1-yl-ethylidene)-piperidin-1-yl]-1-cyclopropyl-6-fluoro-8-methoxy-4-oxo-1,4-dihydro-quinoline-3-carboxylic acid]: the MIC is, setting by setting: under setting [1], 0.12 µg/mL (≈ 0.238 µM); under setting [2], 0.5 µg/mL (≈ 0.992 µM); under setting [3], 2 µg/mL (≈ 3.97 µM); under setting [4], 4 µg/mL (≈ 7.94 µM); under setting [5], 1 µg/mL (≈ 1.98 µM).
Take `COc1c(N2CCC(=C(Cl)CN3CCOCC3)CC2)c(F)cc2c(=O)c(C(=O)O)cn(C3CC3)c12` [Compound 195, 7-[4-(1-Chloro-2-morpholin-4-yl-ethylidene)-piperidin-1-yl]-1-cyclopropyl-6-fluoro-8-methoxy-4-oxo-1,4-dihydro-quinoline-3-carboxylic acid]: the MIC is, setting by setting: under setting [1], 0.12 µg/mL (≈ 0.237 µM); under setting [2], 1 µg/mL (≈ 1.98 µM); under setting [3], 8 µg/mL (≈ 15.8 µM); under setting [4], 8 µg/mL (≈ 15.8 µM); under setting [5], 2 µg/mL (≈ 3.95 µM).
Consider `COc1c(N2CCC(=C(Cl)CNC(C)C)CC2)c(F)cc2c(=O)c(C(=O)O)cn(C3CC3)c12` [Compound 196, 7-[4-(1-Chloro-2-isopropylamino-ethylidene)-piperidin-1-yl]-1-cyclopropyl-6-fluoro-8-methoxy-4-oxo-1,4-dihydro-quinoline-3-carboxylic acid], for which the MIC reads like this: under setting [1], 0.12 µg/mL (≈ 0.251 µM); under setting [2], 0.5 µg/mL (≈ 1.05 µM); under setting [4], 4 µg/mL (≈ 8.37 µM); under setting [5], 2 µg/mL (≈ 4.18 µM).
On to `COc1c(N2CCC(=C(F)CN(C)C)CC2)c(F)cc2c(=O)c(C(=O)O)cn(C3CC3)c12` [Compound 199, 1-Cyclopropyl-7-[4-(2-dimethylamino-1-fluoro-ethylidene)-piperidin-1-yl]-6-fluoro-8-methoxy-4-oxo-1,4-dihydro-quinoline-3-carboxylic acid], for which the MIC reads like this: under setting [1], 0.06 µg/mL (≈ 0.134 µM); under setting [2], 0.25 µg/mL (≈ 0.559 µM); under setting [3], 1 µg/mL (≈ 2.23 µM); under setting [4], 2 µg/mL (≈ 4.47 µM); under setting [5], 1 µg/mL (≈ 2.23 µM).
As to `COc1c(N2CCC(=C(CN)CCO)CC2)c(F)cc2c(=O)c(C(=O)O)cn(C3CC3)c12` [Compound 201, 7-[4-(1-Aminomethyl-3-hydroxy-propylidene)-piperidin-1-yl]-1-cyclopropyl-6-fluoro-8-methoxy-4-oxo-1,4-dihydro-quinoline-3-carboxylic acid], the MIC reads like this: under setting [1], 0.12 µg/mL (≈ 0.269 µM); under setting [2], 0.5 µg/mL (≈ 1.12 µM); under setting [4], 2 µg/mL (≈ 4.49 µM); under setting [5], 8 µg/mL (≈ 18 µM).

The record behind these values is patent US20090156577A1, “7-AMINO ALKYLIDENYL-HETEROCYCLIC QUINOLONES AND NAPHTHYRIDONES” (priority 2004, published 2009).
